# Literature values as cited in patent publication US20090155392A1, “Methods and Systems for Sublingual Guarana Administration” (priority 2007, published 2009).
# What was measured:
# [1] = versus other lithium salts (lithium carbonate, lithium citrate)
# [2] = in vivo
structure (smiles),measurement,setting,value
"O=C([O-])c1cc(=O)[nH]c(=O)[nH]1.[Li+] [lithium orotate, Lithium orotate]",bio-activity relative to other lithium salts,[1],20 times
"CS(C)(=O)=O [MSM, Methylsulfonylmethane]",homocysteine levels in blood,[2],statistically significant lower levels
same,joint pain and stiffness,[2],significantly beneficial effect on joint pain and stiffness
"COc1cc(CNC(=O)CCCC/C=C/C(C)C)ccc1O [capsaicin, Capsaicin]",mean metabolic rate,30 minutes and 60 minutes after taking the extract,significant increase
same,subjects with reduced body fat,two week period,70%
